# Patent US12465588B2, “Indole carboxamide derivative and pharmaceutical composition containing same” (KUKJE PHARMA CO., LTD., priority 2019, dated 2025)
# Marks after values point to notes of the source that are not given here.
# How the values were obtained:
# [1] = test system: A549 human lung cancer cells; assay: Measurement of PGE2 in IL-1β-treated A549 human lung cancer cells; type: cell-based; details: PGE2 production, A549 cell, IL-1β 1 ng/mL, 48 hours
# Description: Samples at various concentrations were added at 24 hours after A549 human lung cancer cells were seeded. After 1 hour, IL-1β of 1 ng/mL was added. The cells were cultured for 48 hours and then the culture supernatant was collected. PGE2 of the collected supernatant was measured according to the manufacturer's instructions using a PGE2 EIA kit.
# [2] = test system: acetic acid-induced abdominal contraction mouse model; assay: Anti-pain efficacy test, acetic acid-induced abdominal contraction mouse model; type: in vivo; details: oral, 1 hour before 0.7% acetic acid i.p.; writhing counted for 10 minutes (FIG. 5)
# Description: In order to evaluate the anti-pain efficacy of the compound according to the present invention in abdominal contraction mice, an experiment was conducted as follows.
# Specifically, male ICR mice weighing about 20 to 25 g from Orient Bio Co., Ltd. (Gyeonggi-do, Korea) were acclimated in a laboratory for 7 days and provided chow and water ad libitum. Temperature (20±2° C.), humidity (40±60%) and light/dark cycle (12 hours) were controlled automatically.
# Based on 10 mice per group, the control group was orally administered with an excipient (200 μL), and the positive control group was orally administered with celecoxib at 25 mg/kg. Compound 9 of the present invention was dissolved in an excipient (10% NMP (N-methyl-2-pyrrolidone), 10% ethanol, 80% polyethylene glycol 400) and administered orally at 10 and 50 mg/kg to each mouse. One hour after drug administration, 0.7% acetic acid was intraperitoneally injected at […] to induce pain. The number of writhing was measured for 10 minutes from 10 minutes after the acetic acid administration.
# In this experiment, the less the number of writhing for 10 minutes, the stronger the anti-pain efficacy of the drug was evaluated. The statistical significance compared to the control group was represented as **P<0.01, *P<0.05 compared to the control group.
# [3] = test system: PGE2, IL-1β, and TNF-α in blood; assay: Inflammatory factor evaluation (ELISA) in blood of MIA osteoarthritis guinea pigs; type: in vivo, guinea pig; details: for IL-1β (ELISA analysis) / PGE2 (ELISA analysis) / TNF-α (ELISA analysis): blood, after 4 weeks
# Description: (§1) Specifically, male guinea pigs weighing about 500 g±20% from Coretech Co., Ltd. (Gyeonggi-do, Korea) were acclimated in a laboratory for 8 days, and provided chow and water ad libitum. Temperature (23±3° C.), humidity (55±15%) and light/dark cycle (12 hours, 08:00˜20:00) were controlled automatically.
# (§2) Each group consisted of 10 guinea pigs. Guinea pigs were anesthetized with Zoletil 50 (VIRBAC, France, 5 mg/kg) and xylazine (Rompun®, Bayer AG, Germany, 2.5 mg/kg) and depilated at the area around the right knee with Clipper. Using a C-arm (ARCADIS Varic, SIEMENS Co.), it was confirmed that a syringe equipped with a 26 gauge needle was located in the joint cavity. 50 μL of MIA at a concentration of 60 mg/mL was administered into the joint cavity. One week after MIA administration, Compound 9 of the present invention was added to excipients (DMSO (10% by weight), Tween 80 (30% by weight), HMPC (same amount as the drug)), dissolved in water so that the total amount was 100% by weight, and orally administered to the prepared experimental animals at 10 mg/kg and 25 mg/kg, respectively. In the positive control group, GRC27864 was orally administered at 12.5 mg/kg using the same excipient, and only the excipient was orally administered to the control group. The drug was administered for 4 weeks.
# (§3) The hind limb incapacitance test was performed for the behavioral evaluation weekly for 4 weeks and the inflammatory factor evaluation was performed by measuring PGE2, IL-1β, and TNF-α in blood after 4 weeks.
# The concentrations of PGE2, IL-1β, and TNF-α in blood were measured using commercially available ELISA kit after 4 weeks. The results are shown in Table 4 below and FIGS. 2 to 4. ***, ** and * represent statistical significance compared to the control group, and are P<0.001, P<0.01, and P<0.05 compared to the control group.
# [4] = test system: guinea pig model of osteoarthritis induced by MIA (monosodium iodoacetate); assay: Hind limb incapacitance test in guinea pig model of osteoarthritis induced by MIA; type: in vivo
# Description: An experiment was conducted as follows in order to evaluate the efficacy of the compound according to the present invention for osteoarthritis-induced guinea pigs.
# as §1, §2, §3
# The hind limb weight-bearing ratios were obtained by setting up the animals at an inclination of 60 degrees in a plastic room using an incapacitance meter tester, measuring the intensity applied to each hind limb over 10 seconds, and calculating an average. Weight-bearing ratios are 50% for normal cases and up to early 30% for the cases in which a disease is induced.
compound,measurement,setting,value
"CC(C)C(=O)NCc1ccc(Cl)c(C(=O)Nc2ccc3c(c2)cc(C(=O)Nc2ccc(OC(F)(F)F)cc2)n3C)c1 [Compound 9, 5-(2-chloro-5-(isobutyramidomethyl)benzamido)-1-methyl-N-(4-(trifluoromethoxy)phenyl)-1H-indole-2-carboxamide]",IC50,[1],7.16 nM
same,number of writhing compared to the control group,[2],significantly lower number of writhing compared to the control group
same,"inhibitory ability on inflammatory factors, in words","[3]; 25 mpk, compared with GRC27864 group",inhibited the inflammatory factor more than the group administered with the drug GRC27864
same,IL-1β (ELISA analysis),[3]; 10 mpk oral,41.547 ± 10.683
same,PGE2 (ELISA analysis),[3]; 10 mpk oral,9331.6 ± 2215.6
same,TNF-α (ELISA analysis),[3]; 10 mpk oral,119.715 ± 22.898
same,IL-1β (ELISA analysis),[3]; 25 mpk oral,34.345 ± 11.786
same,PGE2 (ELISA analysis),[3]; 25 mpk oral,5812.4 ± 1758.8***
same,TNF-α (ELISA analysis),[3]; 25 mpk oral,94.833 ± 22.453**
same,Weight-bearing ratio,"[4]; 10 mpk oral, day 0",42.05 ± 2.99%
same,Weight-bearing ratio,"[4]; 10 mpk oral, day 7",39.64 ± 5.30%
same,Weight-bearing ratio,"[4]; 10 mpk oral, day 14",39.53 ± 6.41%
same,Weight-bearing ratio,"[4]; 10 mpk oral, day 21",40.16 ± 2.92%
same,Weight-bearing ratio,"[4]; 10 mpk oral, day 28",38.42 ± 1.52%
same,Weight-bearing ratio,"[4]; 25 mpk oral, day 0",39.15 ± 4.53%
same,Weight-bearing ratio,"[4]; 25 mpk oral, day 7",42.39 ± 3.69%
same,Weight-bearing ratio,"[4]; 25 mpk oral, day 14",40.65 ± 3.61%
same,Weight-bearing ratio,"[4]; 25 mpk oral, day 21",39.19 ± 3.15%
same,Weight-bearing ratio,"[4]; 25 mpk oral, day 28",39.28 ± 4.14%
same,"weight-bearing ratios, course in words",[4]; over 4 weeks of oral administration after MIA,did not worsen after MIA administration but were maintained
